Measurements from EP0437336B1, “Biophosphoryl hydrazines and their use as pesticides” (priority 1990, dated 1991).
Values after ≈ are worked out from the molar mass of the structure shown. Where two headings read alike, the source gives them in different places.

How the values were obtained:
Green Peach Aphid [1] = experiment: Biological Method D: Foliar Insecticidal Activity Test, aphid test; format: in vivo, Myzus persicae; design: key: I = inactive at concentration listed
Method: (§1) Biological Method D: Foliar Insecticidal Activity Test
(§2) In evaluating the foliar insecticidal activity of the compounds of this invention against insects and mites, the following test procedures were employed.
(§3) Not all compounds were tested at each of the several concentrations stated above. Test concentrations of a compound were selected as those most likely to differentiate dose response of a particular compound toward a particular test insect.
(§4) Initial evaluations were made on one or more of the following pests:
(§5) For the aphid test, infested broccoli (Brassica oleracea italica var. DiCicco) leaves containing about 50 aphids were placed in a Petri dish lid on a moistened piece of cotton. The leaves were then sprayed to thorough wetness with the test solution using a rotating turntable, held for twenty-four hours and then the percentage killed was determined.
(§6) The mortalities obtained in this manner were plotted on logarithmic probability paper.
(§7) The rotating turntable consists of a fixed, continuously operating spray nozzle under which targets are rotated at a fixed speed and distance. If the target is a Petri dish (such as for the bean beetle, armyworm, mite, or aphid tests), the distance from the nozzle is 38.1 cm (15 inches). If the target is a Mason jar (such as for the boll weevil test), the distance from the nozzle is 17.8 cm (7 inches). The nozzle is located 8 inches from the rotating shaft. The targets on individual platforms revolve around the shaft at 1 revolution per 20 seconds but only a brief portion of this time occurs in the spray path. Targets pass only once under the nozzle and then are removed to drying hoods.
(§8) The nozzle used is a 1/4 JCO Spraying Systems (Wheaton, Illinois) air atomizing nozzle equipped with a No. 2850 fluid cap and a No. 70 air cap. At the 68.95 x 10³ Pa gauge (10 psig) air pressure used and with liquid siphon feed, 1.89 ℓ/hr [0.5 GPH (gallons per hour)] are delivered in a round spray pattern with a 21 degree spray angle. Targets are misted with spray droplets to the point that the droplets coalesce to form a uniform thin film insufficient to drown test organisms.

Two-Spotted Spider Mite = experiment: Biological Method D: Foliar Insecticidal Activity Test, mite test; format: in vivo, Tetranychus urticae; design: key to LC50 TSM: I = inactive at concentration listed; conditions: for LC50: Tetranychus urticae
Method: as §1, §2, §3, §4
as §5, with “mite” for “aphid”, “bean (Phaseolus limensis” for “broccoli (Brassica oleracea italica”, “Woods Prolific) leaf discs [3.18 cm (1.25") in diameter]” for “DiCicco) leaves”, “mites” for “aphids”
as §6, §7, §8

[2] = test system: southern corn rootworm, Diabrotica undecimpunctata howardi; experiment: Biological Method A: Corn Rootworm Screening Test (treated non-aggressive soil); conditions: soil concentration giving 90% mortality, 10 days at 27°C
[3] = test system: southern corn rootworm, Diabrotica undecimpunctata howardi
Boll Weevil [4] = experiment: Biological Method D: Foliar Insecticidal Activity Test, boll weevil test; format: in vivo, Anthonomous grandis; design: key: I = inactive at concentration listed
Method: as §1, §2, §3, §4
(§9) For the boll weevil test, 10 adult weevils were placed in a 0.24 ℓ (0.5 pint) glass Mason jar containing a small cube of apple. The weevils were confined to the jar by fiberglass screen mesh secured by a screw-type rim cap. The jars were then sprayed with the test solution using a rotating turntable; directing the spray through the mesh into the jar. The percentage killed was determined after forty-eight and ninety six hours.
as §6, §7, §8

Southern Armyworm [5] = experiment: Biological Method D: Foliar Insecticidal Activity Test, Southern Armyworm test; format: in vivo, Spodoptera eridania; design: key: I = inactive at concentration listed
Method: as §1, §2, §3, §4
(§10) For the Mexican Bean Beetle and Southern armyworm tests, individual lima bean (Phaseolus limeniss var. Woods' Prolific) leaves were placed on moistened pieces of filter paper in Petri dishes. The leaves were then sprayed with the test solution using a rotating turntable and allowed to dry. The dishes were then infested with 10 third instar larvae of either the Mexican Been Beetle or the Southern Armyworm. The dishes were then covered. Percent mortality was determined for each species and spray concentration at 48 and 96 hours after treatment.
as §6, §7, §8

Mexican Bean Beetle = experiment: Biological Method D: Foliar Insecticidal Activity Test, Mexican Bean Beetle test; format: in vivo, Epilachna varivestis; conditions: Epilachna varivestis
Method: as §1, §2, §3, §4, §10, §6, §7, §8

Boll Weevil [6] = experiment: Biological Method D: Foliar Insecticidal Activity Test, boll weevil test; format: in vivo, Anthonomous grandis; conditions: spray into jar
Method: as §1, §2, §3, §4, §9, §6, §7, §8

Southern Armyworm [7] = experiment: Biological Method D: Foliar Insecticidal Activity Test, Southern Armyworm test; format: in vivo, Spodoptera eridania; conditions: foliar spray; for AW 48 hrs LC50: 48 hours after treatment; for AW 96 hrs LC50: 96 hours after treatment
Method: as §1, §2, §3, §4, §10, §6, §7, §8

Green Peach Aphid [8] = experiment: Biological Method D: Foliar Insecticidal Activity Test, aphid test; format: in vivo, Myzus persicae; conditions: foliar spray; kill after twenty-four hours
Method: as §1, §2, §3, §4, §5, §6, §7, §8

[9] = test system: southern corn rootworm, Diabrotica undecimpunctata howardi; conditions: at-planting soil application
[10] = Method D foliar test, Mexican Bean Beetle, 96 hrs, read-out: LC50 BB 96 hrs
[11] = 24 h, foliar spray, kill after twenty-four hours, read-out: TSM LC50
[12] = foliar spray, 48 hours after treatment, read-out: BB 48 hrs. LC50
[13] = foliar spray, 96 hours after treatment, read-out: BB 96 hrs LC50
[14] = foliar spray, kill after twenty-four hours

| Structure (SMILES) | primary nonagressive Method A crw LC90 [2] [ppm] | BW 48 hrs LC50 (Boll Weevil [6]) | BW 96 hrs LC50 (Boll Weevil [6]) | AW 48 hrs LC50 (Southern Armyworm [7]) | AW 96 hrs LC50 (Southern Armyworm [7]) | GPA LC50 (Green Peach Aphid [8]) | LC50 (Mexican Bean Beetle; [12]) [µg/mL] | LC50 (Mexican Bean Beetle; [13]) [µg/mL] | TSM LC50 (Two-Spotted Spider Mite; [14]) | other results |
| --- | --- | --- | --- | --- | --- | --- | --- | --- | --- | --- |
| CCOP(=S)(NNP(=S)(OCC)O[C@H]1C[C@@H](C)CC[C@@H]1C(C)C)OCC (stereo partly shown) [Compound 35] | 0.77 |  |  |  |  |  |  |  |  | LC50 GPA (Green Peach Aphid [1]): I; LC50 TSM (Two-Spotted Spider Mite; Method D foliar test, Two-Spotted Spider Mite): I; pest or weed control at 560 g/ha ([3]; Diabrotica undecimpunctata, in Zea mays, foliar, 336 h, read-out: foliar systemic nonagressive Method B crw % control at 0.56 kg/ha (0.5 lb/acre)): 38%; LC50 BW 48 hrs (Boll Weevil [4]): I; LC50 BW 96 hrs (Boll Weevil [4]): I; LC50 AW 48 hrs (Southern Armyworm [5]): I; LC50 AW 96 hrs (Southern Armyworm [5]): I; LC50 (Mexican Bean Beetle; Method D foliar test, Mexican Bean Beetle, 48 hrs, read-out: LC50 BB 48 hrs.): 250 µg/mL (≈ 560 µM); LC50 (Mexican Bean Beetle; [10]): 52 µg/mL (≈ 116 µM) |
| CCOP(=S)(NNP(=S)(OCC)OC(C)CC)OC(C)CC (stereo not shown) [Compound 65, N-(O-ethyl O-secbutylthiophosphoryl) N′-(O-ethyl O-secbutylthiophosphoryl) hydrazine, reference compound] | 0.09 | I | I | I | I | I | 360 (≈ 917 µM) | 62 (≈ 158 µM) |  | LC50 (Two-Spotted Spider Mite; [11]): 245 µg/mL (≈ 624 µM); secondary aggressive Method C crw LC50 ([9]; rated 17 days post-infestation): 0.44 kg/ha; secondary aggressive Method C crw LC50 ([9]; value in brackets): 0.39 lb/acre |
| CCOP(=S)(NCC(C)C)NNP(=S)(OCC)OCC (stereo not shown) [Compound 71] | 1.1 | I | I | I | I | I | 150 (≈ 413 µM) | 150 (≈ 413 µM) | I |  |
| CCCOP(=S)(NNP(=S)(OCC)OC(C)(C(F)(F)F)C(F)(F)F)OCC (stereo not shown) [Compound 70] | 1.1 | I | I | I | I | I | 500 (≈ 1030 µM) | 45 (≈ 92.5 µM) | I |  |
| C=CCOP(=S)(NNP(=S)(OCC)OCC)OCC (stereo not shown) [Compound 10] | 0.79 |  |  |  |  |  |  |  |  | LC50 GPA (Green Peach Aphid [1]): I; LC50 (Two-Spotted Spider Mite; Method D foliar test, Two-Spotted Spider Mite, read-out: LC50 TSM): 510 µg/mL (≈ 1460 µM); foliar systemic nonagressive Method B crw % control at 0.56 kg/ha (0.5 lb/acre) ([3]; percent control relative to infested check, from root damage ratings, 14 days post-spraying): 34%; LC50 BW 48 hrs (Boll Weevil [4]): I; LC50 BW 96 hrs (Boll Weevil [4]): I; LC50 AW 48 hrs (Southern Armyworm [5]): I; LC50 AW 96 hrs (Southern Armyworm [5]): I; LC50 (Mexican Bean Beetle; [10]): 78 µg/mL (≈ 224 µM) |
| CCCN(C)P(=S)(NNP(=S)(OCC)OCC)OCC (stereo not shown) [Compound 76] | 1.1 | I | I | I | I | I | 150 (≈ 413 µM) | 62 (≈ 171 µM) |  | LC50 (Two-Spotted Spider Mite; [11]): 150 µg/mL (≈ 413 µM) |
| CCCCCCOP(=S)(NNP(=S)(OCC)OCC)OCC (stereo not shown) [Compound 77] | 1.1 | I | I | I | I | I | 150 (≈ 382 µM) | 150 (≈ 382 µM) | I |  |
| CCOP(=S)(NNP(=S)(OCC)OCC(C)C)OCC(C)C (stereo not shown) [Compound 66, reference compound] | 0.09 | I | I | I | I | I |  | 150 (≈ 382 µM) | I | secondary aggressive Method C crw LC50 ([9]; rated 17 days post-infestation): ~1.91 kg/ha; secondary aggressive Method C crw LC50 ([9]; value in brackets): ~1.7 lb/acre |
| CCCOP(=S)(NNP(=S)(NCC(C)C)OCC)OCCC (stereo not shown) [Compound 81] | 1.1 | I | I | I | I | I | 500 (≈ 1280 µM) | 740 (≈ 1890 µM) | I |  |
